Measurements reported in patent publication US9844546B2, “Antibody against human HIF hydroxylase” (OXFORD UNIVERSITY INNOVATION LIMITED, priority 2001, dated 2017).
Read-outs that look alike come from different tables or passages of the source. *1 amine or outer side, *2 acyl side, *3 side chain or, on linkers, in order; H or OH if unused. Where a SMILES comes first, the peptide text is derived from it. Bridges are numbered along the chain shown (N, C = ends). Roman numbers before positions name the chains, in order. [ ]: non-standard residue; d: D form. Actinocin(9to1) = Cc1c2oc3c(C)ccc(C(=O)[*:1])c3nc-2c(C(=O)[*:2])c(N)c1=O; NMeV = CN[C@H](C(=O)O)C(C)C; Sar = CNCC(=O)O

Tests used:
HeLa cells = test: Hypoxic induction of total HIF-PH activity in HeLa cell lysates, pVHL capture assay; assay type: cell-based, human; conditions: hypoxia 16 hours
EGL-9 = test: Recombinant EGL-9 modification of HIF-1, HA.VHL-1 capture; assay type: biochemical, C. elegans
Protocol: Preincubation of C. elegans HIF-1 with worm extract or recombinant EGL-9 was for 30 min at 25° C. Preincubation of mammalian HIF-α polypeptides with cell extract or recombinant enzymes was at 37° C. for 10-30 min unless otherwise stated. For assays of recombinant enzymes, 2-oxoglutarate (2 mM), iron (100 μM), and ascorbate (2 mM) were added to the reaction buffer unless otherwise indicated. Reactions performed in hypoxia were in the stated atmospheric oxygen concentration (balance nitrogen) obtained using a controlled environment Invivo2 400 hypoxia work-station (Ruskinn Technologies) and buffers pre-equilibrated with the appropriate atmosphere. Reactions (50 μl) were performed in open Eppendorf tubes with mixing and stopped by the addition of 20 volumes desferrioxamine (100 μM}.
To test whether EGL-9 could act directly on HIF-1, further preparations were made by baculoviral expression in insect cells and by expression as maltose binding protein ([…]) fusion proteins in E. coli. Since full length MBP/EGL-9 protein was insoluble when expressed in E. coli we prepared an N-terminal truncation containing residues 359-723 (MBP/ΔN.EGL-9) that preserved the predicted catalytic domain and had HIF.1 modifying activity when expressed as an IVTT. […]

HIF-α/pVHL interaction = test: Interaction of HIF-1α and pVHL.HA reticulocyte IVTTs, anti-HA co-immunoprecipitation; assay type: biochemical, human; conditions: 100 μM added to the HIF-1α IVTT
Protocol: ^35S-Methionine labelled […] subunits and pVHL.HA were produced separately by IVTT (in vitro transcription and translation) in reticulocyte lysates. IVTTs were performed under different conditions, mixed, and assayed for interaction by anti-HA co-immunoprecipitation. These in vitro assays allowed analysis of the HIFα/pVHL interaction using the recombinant proteins.
Labelled HIF-1α and pVHL.HA were generated separately in reticulocyte lysates (IVTT), in the presence or absence of Co (II), desferrioxamine, or Fe(II). Lysates were mixed in various combinations, and interactions assayed by anti-HA immunoprecipitation.
• 1. G. L. Semenza, Genes Dev 14, 1983-91. (2000). • 2. N. V. Iyer, et al., Genes Dev. 12, 149-162 (1997). • 3. E. Maltepe, J. V. Schmidt, D. Baunoch, C. A. Bradfield, M. C. Simon, Nature 386, 403-407 (1997). • 4. G. L. Wang, B.-H. Jiang, E. A. Rue, G. L. Semenza, Proc. Natl. Acad. Sci. USA 92, 5510-5514 (1995). • 5. S. Salceda, J. Caro, J. Biol. Chem. 272, 22642-22647 (1997). • 6. L. E. Huang, J. Gu, M. Schau, H. F. Bunn, Proc. Natl. Acad. Sci. USA 95, 7987-7992 (1998). • 7. M. S. Wiesener, et al., Blood 92, 2260-2268 (1998). • 8. P. H. Maxwell, et al., Nature 399, 271-275 (1999). • 9. K. Iwai, et al., Proc. Natl. Acad. Sci. USA 96, 12436-12441 (1999). • 10. J. Lisztwan, G. Imbert, C. Wirbelauer, M. Gstaiger, W. Krek, Genes Dev 13, 1822-33 (1999). • 11. M. E. Cockman, et al., J Biol Chem (2000). • 12. M. Ohh, et al., Nat Cell Biol 2, 423-7. (2000). • 13. T. Kamura, et al., Proc Natl Acad Sci USA 97, 10430-5. (2000). • 14. K. Tanimoto, Y. Makino, T. Pereira, L. Poellinger, Embo J 19, 4298-309. (2000). • 15. M. A. Goldberg, S. P. Dunning, H. F. Bunn, Science 242, 1412-1415 (1988). • 16. G. L. Wang, G. L. Semenza, Blood 82, 3610-3615 (1993). • 17. G. L. Semenza, Cell 98, 281-284 (1999). • 18. Hypoxia (<0.1% oxygen) was obtained in a workstation with O2, CO2 and temperature control (Ruskinn Technologies, Leeds, UK). For hypoxic harvest, buffers were preincubated in the chamber overnight. […]

EGLN-2 and EGLN-3 = test: Modification and pVHL binding assay with reticulocyte lysate programmed with EGLN-2 or EGLN-3; assay type: biochemical, human; conditions: desferrioxamine 200 μM, cobaltous chloride 200 μM
Excerpt: Protein containing HIF-1 sequence (amino acids 549-582) was generated in a reticulocyte in vitro transcription translation reaction in the presence of 100 micromolar desferrioxamine, retrieved and then exposed to […] translates containing the putative enzymes as described above. These proteins contain the critical proline (564) which can be modified by hydroxylation and which enables recognition by von Hippel Lindau tumour suppressor protein (pVHL).
The modification of the HIF-1 sequence was assayed by the binding of the HIF-1 to radiolabelled pVHL, generated by in vitro transcription and translation of a pcDNA3 vector containing the human wild type pVHL open reading frame in a rabbit reticulocyte lysate in the presence of ^35S-methionine.
Modification and pVHL binding assays were performed as described above. Rabbit reticulocyte lysate was programmed with pcDNA3 based plasmids containing no insert, an insert encoding the full open reading frame of the human homologue of C. elegans Egl-9 known as EGLN-2, or an insert encoding the full open reading frame of the human homologue known as EGLN-3. Modification was performed in the absence of additives, in the presence of oxalylglycine, oxalylglycine plus 2-oxoglutarate, 200 μM desferrioxamine or 200 μM cobaltous chloride.

[1] = test system: rat SM-20 and human EGLN1 (PHD2), EGLN2 (PHD1), EGLN3 (PHD3); test: Recombinant enzymes (reticulocyte IVTT) promoting pVHL interaction with HIF-1α residues 549-582; assay type: biochemical; conditions: all enzymes
Protocol: To test the role of these gene products in regulating the interaction between human HIFα sub-units and the VHL E3 ligase complex, we first produced the proteins by reticulocyte IVTT. […] After incubation with relevant enzyme, HIF-α substrates were mixed with extracts from 786-0/VHL cells that stably express HA tagged human pVHL, and tested for interaction by anti-HA immunoprecipitation.

[2] = test system: HIF-α prolyl-hydroxylase (HIF-PH) of cell extract; test: Modifying activity (HIF-PH) of cell extract on HIF substrate (Gal/HIF-1α549-582/VP16 or 19:WT), pVHL capture assay; assay type: biochemical, mammalian
Summary of the method: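 Immunopurified HIF-1α substrate (19:WT polypeptide or Gal/HIF-1α549-582/VP16) on beads was incubated with cell extract under test conditions, washed, and tested for capture of 35S-labelled IVTT pVHL, visualised by fluorography. Hydroxylation activity was inferred from pVHL capture.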

intact cells = test: Entry into intact cells; assay type: cell-based
Excerpt: In this Example it is shown that HIF-1α protein and the endogenous HIF target gene encoding carbonic anhydrase 9 (CA-9) are induced by exposure of cells to the PHD inhibitor, dimethyl oxalylglycine. […] The esterified form, dimethyloxalylglycine, has therefore been used to deliver the compound to tissue culture cells.
Application of an esterified form, dimethyloxalylglycine, to tissue culture cells results in stabilisation of HIF alpha chains (Example 1) and activation of transcription of endogenous HIF target genes (Example 5).

[3] = test system: collagen prolyl-hydroxylase (CPH); conditions: cited from earlier work
[4] = test system: HIF hydroxylase (HPH activity); test: HIF hydroxylase (HPH) inhibition, statements of the description; assay type: biochemical

| SMILES | effect on induction of total HIF-PH activity by hypoxia (HeLa cells) | effect on recombinant EGL-9 activity (EGL-9) | capture of HIF-1α by pVHL.HA (HIF-α/pVHL interaction) | Enzyme activity (modification of HIF-1 to VHL binding form) (EGLN-2 and EGLN-3) | inhibition of enzyme activity promoting pVHL interaction with HIF-1α 549-582 [1] | Inhibition of pVHL capture ([2]; 0-2000 μM inhibitor, RCC4 cell extract, 5 or 100 μM FeCl2) | inhibition of modifying activity of cell extract on 19:WT (pVHL capture) ([2]; N-oxalylglycine 0.2-1 mM, overcome by 5 mM 2-oxoglutarate) | ability to enter intact cells (intact cells) | inhibition of CPH [3] | inhibition of HIF hydroxylase / HPH [4] | inhibition of HIF hydroxylase / HPH ([4]; listed as N-oxaloglycine) |
| --- | --- | --- | --- | --- | --- | --- | --- | --- | --- | --- | --- |
| Cc1c2oc3c(C)ccc(C(=O)N[C@@H]4C(=O)N[C@H](C(C)C)C(=O)N5CCC[C@H]5C(=O)N(C)CC(=O)N(C)[C@@H](C(C)C)C(=O)O[C@@H]4C)c3nc-2c(C(=O)N[C@@H]2C(=O)N[C@H](C(C)C)C(=O)N3CCC[C@H]3C(=O)N(C)CC(=O)N(C)[C@@H](C(C)C)C(=O)O[C@@H]2C)c(N)c1=O [actinomycin D] (I: T[dV]P[Sar][NMeV] / II: T[dV]P[Sar][NMeV]; ester I:1-I:C, II:1-II:C; linker I:N-II:N via Actinocin(9to1)) | blocked | – | – | – | – | – | – | – | – | – | – |
| [Cl-].[Cl-].[Co+2] [Co(II), cobaltous chloride] | – | direct inhibition | greatly diminished capture | diminished | strongly inhibited | – | – | – | – | – | – |
| O=C(O)CNC(=O)C(=O)O [N-oxalylglycine] | – | – | – | diminished | strongly inhibited | increased with the concentration of inhibitor | completely inhibit | incapable of entering intact cells | inhibitor | act as inhibitors | inhibitor |
